In patent publication US20260008775A1, “AZOLE MODULATORS OF CHOLESTEROL BIOSYNTHESIS AND THEIR USE FOR PROMOTING REMYELINATION” (GENENTECH, INC., priority 2022, published 2026):

How the values were obtained:
[1] = biological target: human emopamil binding protein and human 7-dehydrocholesterol reductase (hEBP-DHCR7) (Homo sapiens (Human), UniProt Q15125); assay: hEBP-DHCR7 radioligand binding assay (filter binding, membranes of co-expressing HEK293 cells); conditions: competition with [3H] radioligand, 8 doses 0.06 to 5000 nM, Ki calculated from IC50
Chain of human emopamil binding protein and human 7-dehydrocholesterol reductase (hEBP-DHCR7) (Q15125 whole entry): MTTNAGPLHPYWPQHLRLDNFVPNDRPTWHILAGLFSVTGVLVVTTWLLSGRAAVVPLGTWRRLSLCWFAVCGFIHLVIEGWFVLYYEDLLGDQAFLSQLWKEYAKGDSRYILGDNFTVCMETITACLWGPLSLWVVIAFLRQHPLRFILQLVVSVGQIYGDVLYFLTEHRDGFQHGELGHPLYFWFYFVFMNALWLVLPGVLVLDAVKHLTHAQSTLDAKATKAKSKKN
Procedure: Membrane Preparation: human emopamil binding protein and human 7-dehydrocholesterol reductase co-expressing cells were generated by transient transfecting host human embryonic kidney (HEK) 293 cells with 2 DNA constructs containing each protein's coding sequence. Cells were suspension cultured at 37° C. with 5% CO2 in […] 293 Expression Medium (Thermofisher). Whole cell membrane was prepared by harvesting the cell pellet, adding cold membrane buffer (50 mM Tris, pH7.5, 1× Roche COMPLETE EDTA-free protease inhibitor cocktail) 10 times volume of the cell pellets weight, lysing cell pellet on ice by using Dounce homogenizer, spinning at 200 g 4° C. for 15 min, collecting supernatant and spinning again at 25000 g 4° C. for 50 min, transferring pellet to Dounce homogenizer, re-suspending pellet by homogenizing in membrane buffer on ice to reach ˜25 mg/mL, then keeping whole cell membrane aliquots at −80° C.
Compounds were prepared in a 96-well U bottom plate (Corning Cat #7007) using an Echo550 machine and 10 mM compound DMSO stock solution, followed by an 8-dose 5-fold serial dilutions protocol with final testing compound concentration ranging from 0.06 to 5000 nM, with DMSO back fill to 100 nL/well and n=2. […] The UniFilter-96 GF/B plates (PerkinElmer Cat #6005177) were pre-treated by adding 50 μl/well of 0.3% (v/v) Polyethylenimine (PEI) (branched, Sigma Cat #408727) to UniFilter-96 GF/B plates. The plates were sealed and incubated at 4° C. for 3 hrs. Then, the plates were washed with ice-cold assay buffer 3 times. The radioligand binding assay was prepared by adding assay buffer diluted hEBP-DHCR7 membrane at 66.7 µg/ml×150 μl/well into the 96-well compound plate to reach 10 μg membrane per well. Then, the assay buffer diluted [3H]—(S)-6-(2-Methyl-3-(6-(trifluoromethyl)pyridin-3-yl)propyl)-2-thia-6-azaspiro[3.4]octane 2,2-dioxide (Moravek, Cat #MT-1003106) was added at 25 nM×50 μl/well. Following this, the plate was centrifuged at 1000 rpm for 30 secs. The plate was then sealed and agitated at 600 rpm at 22° C. for 5 min, and then incubated at 22° C. for 3 hrs. The incubation was stopped by transferring the binding solution to the pre-treated UniFilter-96 GF/B plate, vacuum filtrated, and then washed four times with ice-cold assay buffer. Following this, the plates were dried at 37° C. for 45 min. The plates were then sealed at the bottom. 40 µl/well of scintillation cocktail was added to the plates. A MicroBeta2 microplate counter was then used to read the plate and analyze the data. For reference and test compounds, the results are expressed as % Inhibition, using the normalization equation: N=100−100×(U−C2)/(C1−C2), where U is the unknown value, C1 is the average of high controls, and C2 is the average value of low controls.

[2] = tested on: zymostenol accumulation (EBP) in EpiSC-derived OPCs; assay: GC/MS-based sterol profiling, zymostenol accumulation in EpiSC-derived OPCs; assay type: cell-based, mouse; conditions: Mus musculus, 24 h, EpiSC-derived OPCs, 24 hr, 8 doses from 0.15 nM to 333 nM; read-out: Mouse Zymostenol GCMS EC50
Procedure: To assess effects of treatments on OPCs, all treatments were assayed in two or more independent platings of epiblast stem cell-derived OPCs (EpiSC). EpiSC-derived OPCs were obtained using in vitro differentiation protocols and culture conditions described previously (Najm et al, 2011, Nature Methods). OPCs were expanded and frozen down in aliquots. OPCs were thawed into growth conditions for at least one passage before use in further assays.
Sterols were monitored using a modified Folch wash protocol (Hubler et al, 2018, Nature). EpiSC-derived OPCs were plated at 100,000 cells per well in PO- and laminin-coated 96-well plates in N2B27 media without growth factors. After 24 hours, cells were rinsed with saline and plates were frozen. Cholesterol-d7 standard was then added to each well before drying under nitrogen stream and derivatization with 55 μl of bis(trimethylsilyl) trifluoroacetamide. After derivatization, 2 μl were analyzed by gas chromatography/mass spectrometry using an Agilent 5973 Network Mass Selective Detector equipped with a 6890 gas chromatograph system and a HP-5MS capillary column (30 m×0.25 mm×[…]). Samples were analyzed in full scan mode using electron impact ionization; ion fragment peaks were integrated to calculate sterol abundance, and quantitation was relative to cholesterol-d7. The following ion fragments were used to quantitate each metabolite: cholesterol-d7 (465), FF-Mas (482), cholesterol (368), zymostenol (458), zymosterol (456), Desmosterol (456, 343), 7-dehydrocholesterol (456, 325), lanosterol (393), lathosterol (458), 14-dehydrozymostenol (456, 351). […] All standards were obtained from Avanti Polar Lipids unless otherwise indicated. Calibration curves were generated by injecting varying concentrations of sterol standards and maintaining a fixed amount of cholesterol-D7. For normalized zymostenol accumulation results, the total amount of zymostenol measured after drug treatment was divided by the total amount of zymostenol accumulated after 24 hr treatment with 100 nM positive control reference.

Structure (SMILES)	Ki [1]	EC50 [2]
CC(C)n1nc(-c2cncc(C(F)(F)F)c2)cc1[C@H]1[C@@H]2CC(N3CCOC[C@H]3C)C[C@@H]21 (single isomer, unassigned) [44*]	65 nM	62 nM
CC(C)n1nc(-c2cnc(F)c(C(F)(F)F)c2)nc1[C@@H]1CC[C@H](N2CCOCC2)C1 (single isomer, unassigned) [Compound 157*]	51 nM	59.2 nM
COCCN1CCN([C@@H]2CC[C@@H](c3nc(-c4ccc(C(F)(F)F)nc4)nn3C(C)C)C2)CC1 [Compound 82, 1-((1R,3R)-3-(1-Isopropyl-3-(6-(trifluoromethyl)pyridin-3-yl)-1H-1,2,4-triazol-5-yl)cyclopentyl)-4-(2-methoxyethyl)piperazine]	87 nM	280 nM
CC[C@H]1CN([C@@H]2CC[C@H](c3nc(-c4ccc(C(F)(F)F)nc4)nn3C(C)C)C2)CCO1 [Compound 128, (S)-2-Ethyl-4-((1R,3S)-3-(1-isopropyl-3-(6-(trifluoromethyl)pyridin-3-yl)-1H-1,2,4-triazol-5-yl)cyclopentyl)morpholine]	118 nM	16.6 nM
CC(C)n1nc(-c2cnc(C(F)(F)F)nc2)cc1[C@H]1CC[C@H](N2CCO[C@H](CF)C2)C1 (single isomer, unassigned) [Compound 132*]	88 nM	352 nM
CC(C)n1nc(-c2cncc(C(F)(F)F)c2)cc1[C@@H]1CC[C@@H](N2CCOCC2)C1 (single isomer, unassigned) [59*]	73.4 nM	19.2 nM
CC(C)n1nc(-c2cncc(C(F)(F)F)c2)nc1[C@H]1CC[C@H](N2CCOCC2)C1 (single isomer, unassigned) [Compound 116*]	169 nM	49 nM
CC(C)n1nc(-c2cncc(C(F)(F)F)c2)nc1[C@H]1[C@@H]2C[C@@H](N3CCOC[C@H]3C)C[C@@H]21 [Compound 119, (R)-4-((1R,3s,5S,6R)-6-(1-Isopropyl-3-(5-(trifluoromethyl)pyridin-3-yl)-1H-1,2,4-triazol-5-yl)bicyclo[3.1.0]hexan-3-yl)-3-methylmorpholine]	584 nM	213 nM
CC(C)n1nc(-c2cccc(OC(F)F)c2)nc1[C@H]1[C@@H]2C[C@H](N3CCCOCC3)C[C@@H]21 [Compound 75, 4-((1R,3r,5S,6r)-6-(3-(3-(Difluoromethoxy)phenyl)-1-isopropyl-1H-1,2,4-triazol-5-yl)bicyclo[3.1.0]hexan-3-yl)-1,4-oxazepane]	12 nM	2.83 nM
CC(C)n1nc(-c2cncc(C(F)(F)F)c2)nc1[C@H]1[C@@H]2C[C@H](N3CCOC[C@@H]3C)C[C@@H]21 [Compound 122, (S)-4-((1R,3r,5S,6R)-6-(1-Isopropyl-3-(5-(trifluoromethyl)pyridin-3-yl)-1H-1,2,4-triazol-5-yl)bicyclo[3.1.0]hexan-3-yl)-3-methylmorpholine]	26.6 nM	7.81 nM
CC[C@@H]1CN([C@@H]2CC[C@H](c3nc(-c4cncc(Cl)c4)nn3C(C)C)C2)CCO1 [Compound 129, (R)-4-((1R, 3S)-3-(3-(5-Chloropyridin-3-yl)-1-isopropyl-1H-1,2,4-triazol-5-yl)cyclopentyl)-2-ethylmorpholine]	23.2 nM	2.79 nM
CC(C)n1nc(-c2ccnc(C(F)(F)F)n2)cc1[C@H]1[C@@H]2C[C@@H](N3CCOC[C@H]3C)C[C@@H]21 [Compound 102, (R)-4-((1R,3s,5S,6S)-6-(1-Isopropyl-3-(2-(trifluoromethyl)pyrimidin-4-yl)-1H-pyrazol-5-yl)bicyclo[3.1.0]hexan-3-yl)-3-methylmorpholine]	73 nM	55 nM
CC(C)n1nc(-c2cncc(C(F)(F)F)n2)cc1[C@H]1[C@@H]2C[C@H](N3CCOCC3)C[C@@H]21 [Compound 108, 4-((1R,3r,5S,6r)-6-(1-Isopropyl-3-(6-(trifluoromethyl)pyrazin-2-yl)-1H-pyrazol-5-yl)bicyclo[3.1.0]hexan-3-yl)morpholine]	87.8 nM	62 nM
CC[C@H]1CN([C@@H]2CC[C@H](c3nc(-c4cncc(F)c4)nn3C(C)C)C2)CCO1 [Compound 123, (S)-2-Ethyl-4-((1R,3S)-3-(3-(5-fluoropyridin-3-yl)-1-isopropyl-1H-1,2,4-triazol-5-yl)cyclopentyl)morpholine]	40.4 nM	10.6 nM
COCCN1CCN([C@@H]2CC[C@@H](c3cc(-c4ccc(C(F)(F)F)nc4)nn3C(C)C)C2)CC1 (single isomer, unassigned) [90*]	11 nM	33.7 nM

The remaining compounds from weak to strong by Ki [1], led by results:

Ki [1]	EC50 [2]	Structure (SMILES)
1640 nM	143 nM	CC(C)n1nc([C@H]2CC[C@H](C(F)(F)F)CC2)nc1[C@H]1[C@@H]2C[C@H](N3CCOC[C@H]3C)C[C@@H]21 (single isomer, unassigned) [Compound 164*]
388 nM	229 nM	CC(C)n1nc(-c2ccc(C(F)(F)F)nc2)nc1[C@H]1CC[C@H](N2CCO[C@H](CF)C2)C1 (single isomer, unassigned) [Compound 168]
245 nM	716 nM	CC(C)n1nc(-c2cncc(Cl)c2)nc1[C@H]1CC[C@H](N2CCOC[C@@H]2C)C1 [Compound 125, (S)-4-((1S,3S)-3-(3-(5-Chloropyridin-3-yl)-1-isopropyl-1H-1,2,4-triazol-5-yl)cyclopentyl)-3-methylmorpholine]
31.2 nM	28.7 nM	CC(C)n1nc(-c2ccc(C(F)(F)F)nc2)cc1[C@@H]1CC[C@@H](N2CCN(CCO)CC2)C1 (single isomer, unassigned) [86*]
22.2 nM	13.4 nM	CC(C)n1nc(-c2cnc(C(F)(F)F)nc2)nc1[C@@H]1CC[C@H](N2CCO[C@H](C)C2)C1 [Compound 148, (R)-4-((1S,3R)-3-(1-Isopropyl-3-(2-(trifluoromethyl)pyrimidin-5-yl)-1H-1,2,4-triazol-5-yl)cyclopentyl)-2-methylmorpholine]
11.3 nM	0.94 nM	CC[C@@H]1CN([C@@H]2CC[C@H](c3nc(-c4cnc(C(F)(F)F)c(F)c4)nn3C(C)C)C2)CCO1 [Compound 146, (R)-2-Ethyl-4-((1R,3S)-3-(3-(5-fluoro-6-(trifluoromethyl)pyridin-3-yl)-1-isopropyl-1H-1,2,4-triazol-5-yl)cyclopentyl)morpholine]
11 nM	5.99 nM	CC(C)n1nc(-c2ccnc(C(F)(F)F)n2)cc1[C@H]1[C@@H]2C[C@@H](N3CCOC[C@@H]3C)C[C@@H]21 [Compound 100, (S)-4-((1R,3s,5S,6S)-6-(1-Isopropyl-3-(2-(trifluoromethyl)pyrimidin-4-yl)-1H-pyrazol-5-yl)bicyclo[3.1.0]hexan-3-yl)-3-methylmorpholine]
